Test results: patent publication US7582786B2, “Synthetic catalytic free radical scavengers useful as antioxidants for prevention and therapy of disease” (Eukarion Inc., priority 1996, dated 2009)
Entries after “also recorded” stand apart in the source; their conditions may differ.

What was measured:
SJL female mice = experiment: Experimental autoimmune encephalomyelitis (EAE); type: in vivo, mouse
Description: EAE is an animal model of multiple sclerosis.
Mice in both groups were immunized with an encephalitogenic PLP peptide in complete Freund's adjuvant subcutaneously, followed by Petrussis Toxin (IV). Petrussis toxin was repeated on day 3 post immunization.

[1] = SOD activity, xanthine/xanthine oxidase with NBT as acceptor (Example 2); type: biochemical
Description: (§1) Superoxide dismutase (SOD) activity was assayed by following the inhibition of the reduction of an electron acceptor molecule in the presence of the free-radical generating system xanthine/xanthine oxidase (McCord et al. (1973) Superoxide and Superoxide Dismutase in “Oxidases and Related Redox Systems, vol. I, King et al. eds., University Park press, Baltimore, pp. 51-76). The assay mixture consisted of 50 mM sodium phosphate, pH 7.8, 120 μM xanthine, 0.2 units/ml xanthine oxidase, with acceptor molecule and salen manganese compound, as indicated. Assays were conducted at 27±0.2° C. using a water-jacketed cell holder in a Beckman DU7400 spectrophotometer. In most cases, oxidized cytochrome c, at 0.13 mg/ml, was employed as acceptor and its reduction was monitored spectrophotometrically at 550 nm. In some experiments, nitroblue tetrazolium (NBT), at 80 μM, was substituted for cytochrome c as the acceptor. NBT reduction was also monitored at 550 nm. An estimated extinction coefficient for NBT reduction, 20,800 M^−1cm^−1, determined empirically by exhaustive reduction of NBT in the reaction mixture described above, was employed where indicated. This value agreed well with reported extinction coefficients for reduced tetrazolium dyes. […] Conversion of xanthine to urate was calculated using ε290's of […] for urate and 4050 M^−1cm^−1 for xanthine. […]

xanthine oxidase = xanthine oxidase (Homo sapiens, UniProt P47989); experiment: Control reaction for direct inhibition of xanthine oxidase (urate production at 290 nm); type: biochemical; settings: 6 and 11 μM C7
xanthine oxidase, sequence (P47989 whole entry, species assumed): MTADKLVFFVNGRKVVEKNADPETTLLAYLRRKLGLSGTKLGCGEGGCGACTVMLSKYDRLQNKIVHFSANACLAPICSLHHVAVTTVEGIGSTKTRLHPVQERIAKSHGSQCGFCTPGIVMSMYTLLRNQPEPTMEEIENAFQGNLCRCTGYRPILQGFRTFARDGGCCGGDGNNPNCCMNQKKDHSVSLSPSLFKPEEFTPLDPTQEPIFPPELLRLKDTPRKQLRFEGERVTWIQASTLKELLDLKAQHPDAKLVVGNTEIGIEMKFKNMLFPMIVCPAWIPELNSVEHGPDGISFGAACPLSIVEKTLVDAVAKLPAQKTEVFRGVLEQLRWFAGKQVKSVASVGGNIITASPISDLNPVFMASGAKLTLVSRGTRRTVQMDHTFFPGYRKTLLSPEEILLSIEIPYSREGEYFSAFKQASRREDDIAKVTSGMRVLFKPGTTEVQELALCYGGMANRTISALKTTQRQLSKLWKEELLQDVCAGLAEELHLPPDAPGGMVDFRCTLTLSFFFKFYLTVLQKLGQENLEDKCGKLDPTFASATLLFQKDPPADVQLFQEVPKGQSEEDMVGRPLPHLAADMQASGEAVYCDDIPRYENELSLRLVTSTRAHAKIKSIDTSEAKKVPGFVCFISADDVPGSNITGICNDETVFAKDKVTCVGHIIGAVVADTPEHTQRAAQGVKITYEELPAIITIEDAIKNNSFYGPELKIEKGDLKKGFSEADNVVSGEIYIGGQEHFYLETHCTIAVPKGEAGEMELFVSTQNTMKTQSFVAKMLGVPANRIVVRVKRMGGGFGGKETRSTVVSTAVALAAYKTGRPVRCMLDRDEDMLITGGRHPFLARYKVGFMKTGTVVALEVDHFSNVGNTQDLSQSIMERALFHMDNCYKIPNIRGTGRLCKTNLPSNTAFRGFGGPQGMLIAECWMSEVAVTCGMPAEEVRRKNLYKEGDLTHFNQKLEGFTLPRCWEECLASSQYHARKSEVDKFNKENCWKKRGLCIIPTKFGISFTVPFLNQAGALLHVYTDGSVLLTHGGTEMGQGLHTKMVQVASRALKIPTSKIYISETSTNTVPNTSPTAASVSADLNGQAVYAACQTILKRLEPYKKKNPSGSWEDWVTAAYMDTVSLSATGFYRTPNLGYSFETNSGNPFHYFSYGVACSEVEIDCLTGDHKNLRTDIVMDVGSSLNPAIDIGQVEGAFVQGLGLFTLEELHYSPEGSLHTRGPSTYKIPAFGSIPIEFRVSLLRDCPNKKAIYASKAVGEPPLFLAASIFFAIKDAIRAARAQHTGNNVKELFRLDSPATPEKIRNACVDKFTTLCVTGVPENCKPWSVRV
Description: as §1

[2] = Catalase activity, decomposition of hydrogen peroxide monitored at 240 nm (Example 1); type: biochemical; settings: Example 1, H2O2 decomposition at 240 nm
Description: Catalase activity was measured using a spectrophotometric method in which the decomposition of hydrogen peroxide is monitored at 240 nm according to the method of Aebi et al. (1984) Methods Enzymol. 105: 121, incorporated herein by reference. One unit of catalase activity is defined as the amount of enzyme (or salen-metal complex) required to decompose 1 μmole of hydrogen peroxide in one minute.

mice = experiment: Mouse skin transplantation model; type: in vivo; settings: 50 mg/kg single intraperitoneal injection at grafting
Description: In this model, donor and recipient mice were immunologically mismatched (ClassI/Class II MHC mismatched). A piece of skin (˜1 cm^2) from the tail of a donor mouse was transplanted onto the back of a recipient mouse. The graft was bandaged and observed daily for rejection, as indicated by loss of vascularization and necrosis. Recipient mice received vehicle (Control) or 50 mg/kg C40 as a single intraperitoneal injection at the time of grafting.

Rats = experiment: Ischemia-reperfusion induced kidney damage in the rat; type: in vivo; settings: 0.2 mg/kg single intravenous bolus at beginning of reperfusion
Description: Rats (“Untreated” and “C40” groups) were unilaterally nephrectomized. The remaining renal artery was clamped for 75 min then reperfused. Kidney function was assessed by determining creatinine levels in the blood. Where indicated, rats received C40 as a single intravenous bolus injection (0.2 mg/kg) at the beginning of the reperfusion period. Bilaterally nephrectomized rats, showing maximal creatinine levels in the absence of kidney function, died on day 2.

Row | Compound | mice developing symptomatic EAE (SJL female mice; fifth week, three weeks after treatment with C7 was stopped) | mice developing symptomatic EAE (SJL female mice; third week following immunization, C7 1 mg/mouse IP daily, day -2 to 14) | NBT reduction ([1]; 0.1 to 6 μM C7) | inhibition of NBT reduction ([1]; about 1.7 nmoles C7) | effect on xanthine oxidase activity (xanthine oxidase) | Catalase Activity [2] | graft rejection (mice) | kidney damage, creatinine levels in the blood (Rats)
1 | [Cl][Mn]1[O]c2ccccc2C=NCCN=Cc2ccccc2[O]1 [Compound C7] | six | one of 10 | inhibited the rate of NBT reduction in a concentration-dependent manner; also recorded: inhibits NBT reduction | about 59% | no effect; also recorded: without affecting | 200 units/mM | – | –
2 | COc1cccc2c1[O][Mn]([Cl])[O]c1c(cccc1OC)C=NCCN=C2 [Compound C40] | – | – | – | – | – | – | delays rejection | protects against ischemia-reperfusion induced kidney damage
